Measurements published in US9018188B2, “MicroRNA inhibitors” (Ottawa Hospital Research Institute, priority 2011, dated 2015).

What was measured:
[1] = test system: let-7a microRNA; assay: RT-qPCR of let-7a expression after intramuscular ASO injection (specificity); format: in vivo, mouse; conditions: intramuscular administration
From the text: (§1) To investigate miR-133 function in brown adipose determination of satellite cells in vivo, Applicant synthesized miR-133 antagomiR (miR-133 antisense oligonucleotide (ASO)) with an antisense sequence to both miR-133a and miR-133b, as well as a control “antagomiR” (control ASO) with the same chemical modifications and not antisense to any mouse gene or EST sequence (see Experimental Procedures). Applicant performed lineage tracing to distinguish effects of miR-133 ASO on satellite cells versus other cell types. Six week old Pax7-CreER; R26R-tdTomato mice were treated with tamoxifin as before (5 consecutive daily injections), then aged to 10 weeks of age prior to initiating the experiment. Control ASO versus miR-133 ASO were injected into tibialis anterior (TA) muscles 3 days following saline injection (quiescent state) or cardiotoxin injection (to induce activation). After one month, RT-qPCR was performed using RNA isolated from several tissues to evaluate the efficacy and scope of miR-133 ASO administration.
(§2) To induce brown adipocytes in vivo, 10 mg/mL Cardiotoxin solution (50 μl) was intramuscularly injected into TA muscles of 10-week old Pax7-CreER/R26R-tdTomato mice (FIG. 4) or C57BL/6 mice (FIG. 5 and FIG. 6). Alternatively, frozen injury was performed by applying liquid nitrogen cooled tweezers tips directly onto the anterior sides of TA muscles. […]

[2] = test system: Ucp3; assay: Immunoblot of Ucp3 in TA muscle after ASO injection; format: in vivo, mouse; conditions: TA muscles
From the text: as §1, §2

[3] = test system: TA muscles; assay: [18F]-FDG PET imaging of treated TA muscles; format: in vivo, mouse; conditions: after CL316,243-stimulated sympathetic activation; normalized to contralateral TA muscles; 2 months after treatment
From the text: Metabolically active BAT has been identified in adult human by [^18F]-fluorodeoxyglucose positron emission tomography ([^18F]-FDG PET), due to dramatic glucose uptake by this tissue after sympathetic activation (Nedergaard et al., 2007). To visualize active brown adipose tissue within muscle, Applicant performed [^18F]-FDG PET imaging on control- or miR-133 ASO treated mice (n=5 for 133 ASO treated mice, n=4 for control treated muscle; 2 months after treatment) after acute sympathetic activation by selective β3-adrenergic receptor agonist, CL316,243 (FIG. 5E). Applicant observed a dramatic increase of FDG uptake in miR-133 ASO treated TA muscles compared to contralateral TA muscles or TA muscles within control ASO treated mice. To rule out possible direct and indirect effects of CL316,243 on glucose/FDG uptake by skeletal muscle cells, Applicant normalized FDG activities derived from ROIs of treated TA muscles to those of contralateral TA muscles (FIG. 5F). […] Such a drastic increase was not observed without the sympathetic activation preceding anesthesia (baseline).
Mouse PET imaging was performed with an Inveon PET scanner (Siemens Preclinical Solutions, Knoxyille, Tenn., USA). Control- or miR-133 ASO treated C57BL/6 male mice fed with regular diet were anesthetized under 2% isoflurane. […]

[4] = Indirect calorimetry, physical activity and food intake; format: in vivo, mouse
From the text: To assess whether miR-133 ASO treatment leads to increased whole-body energy expenditure, Applicant carried out indirect calorimetry studies at 2-3 months after ASO treatment on control- and miR-133 ASO treated mice (C57BL/6, male, individually caged, n=5 per treatment group per diet group; FIGS. 6C & 7B). […] Intriguingly, this amount of energy expenditure is coincident with the increase of mitochondrial respirometry-measured energy expenditure in miR-133 ASO treated TA muscles after adjustment with TA muscle mass (FIG. 7A; 0.3 cal·hour^−1·le^−1×75 mg=0.0225 kcal·hour^−1).
This discrepancy may be related to the abnormally low respiratory exchange ratio (˜0.76) in the control mice fed with HFD (FIG. 7D), which indicates an increased proportion of lipid oxidation in the control mice. […] In addition, miR-133 ASO treatment also led to much improved glucose tolerance in both diet groups (FIGS. 6E & 7F).
Whole-body O2 consumption and CO2 production was measured using an open circuit four-chamber indirect calorimetry system with automatic temperature and light controls (Columbus Instruments). Physical activities during indirect calorimetry was measured using infrared laser beam sets. Mice had access ad libitum to food and water in respiration chambers. Data were recorded for a 24 hour period with light between 06:00-18:00.

[5] = test system: IL-1β and TNF-α; conditions: mouse, in vivo

*mA*mUmAmGmCmUmGmGmUmUmGmAmAmGmGmGmGmAmC*mC*mA*mA*mAChl [miR-133 ASO]
let-7a microRNA expression [1]: no effect | Ucp3 protein by immunoblotting [2]: largely unaffected | increase of glucose/FDG uptake compared to control [3]: 1.3 fold | energy expenditure or physical activity compared to control mice ([4]; HFD, dark cycle): No significant increase | physical activities ([4]; HFD, light cycle): without difference | total energy expenditure ([4]; HFD, light cycle): significantly increased | energy expenditure ([4]; RD, dark cycle): conspicuously high | physical activities ([4]; RD, dark cycle): increased | physical activities ([4]; RD, light cycle): without change | total energy expenditure ([4]; RD, light cycle, 2-3 months after treatment): significant increase | 24-hour food intake versus control mice ([4]; both diet groups): comparable | expression of IL-1β and TNF-α between control- and treated muscles [5]: no difference
